Data as given in PubChem BioAssay AID1963973 (Molecular Pharmacology Branch, DTP, NCI, 2024).

System: 883617-216-R-J1-PDC tumor spheroids, viability
Experiment: Anticancer human tumor 883617-216-R-J1-PDC patient-derived bladder carcinoma cell line growth inhibition [PI3K]
Settings: spheroids with HUVEC and MSC; for viability, T/C: stronger effect = lower value; active = viability on the fitted dose curve at most 10% of control; inactive = the rest
Outline: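 Three cell types, namely tumor cells, endothelial cells and mesenchymal stem cells, formed each spheroid. Combinations with four PI3K inhibitors were screened at clinically achievable concentrations decreasing by half-log, and spheroid viability was recorded.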

[1] = curve of first compound, second compound 0.0316 µM
[2] = curve of first compound, second compound 0.1 µM
[3] = curve of first compound, second compound 0.316 µM
[4] = curve of first compound, second compound 1 µM
[5] = curve of first compound, second compound 3.16 µM
[6] = curve of first compound, second compound 10 µM
[7] = second compound 0.0316 µM, first compound 0.0316 µM
[8] = second compound 0.0316 µM, first compound 0.1 µM
[9] = second compound 0.0316 µM, first compound 0.316 µM
[10] = second compound 0.0316 µM, first compound 1 µM
[11] = second compound 0.0316 µM, first compound 3.16 µM
[12] = second compound 0.0316 µM, first compound 10 µM
[13] = second compound 0.1 µM, first compound 0.0316 µM
[14] = second compound 0.1 µM, first compound 0.1 µM
[15] = second compound 0.1 µM, first compound 0.316 µM
[16] = second compound 0.1 µM, first compound 1 µM
[17] = second compound 0.1 µM, first compound 3.16 µM
[18] = second compound 0.1 µM, first compound 10 µM
[19] = second compound 0.316 µM, first compound 0.0316 µM
[20] = second compound 0.316 µM, first compound 0.1 µM
[21] = second compound 0.316 µM, first compound 0.316 µM
[22] = second compound 0.316 µM, first compound 1 µM
[23] = second compound 0.316 µM, first compound 3.16 µM
[24] = second compound 0.316 µM, first compound 10 µM
[25] = second compound 1 µM, first compound 0.0316 µM
[26] = second compound 1 µM, first compound 0.1 µM
[27] = second compound 1 µM, first compound 0.316 µM
[28] = second compound 1 µM, first compound 1 µM
[29] = second compound 1 µM, first compound 3.16 µM
[30] = second compound 1 µM, first compound 10 µM
[31] = second compound 3.16 µM, first compound 0.0316 µM
[32] = second compound 3.16 µM, first compound 0.1 µM
[33] = second compound 3.16 µM, first compound 0.316 µM
[34] = second compound 3.16 µM, first compound 1 µM
[35] = second compound 3.16 µM, first compound 3.16 µM
[36] = second compound 3.16 µM, first compound 10 µM
[37] = second compound 10 µM, first compound 0.0316 µM
[38] = second compound 10 µM, first compound 0.1 µM
[39] = second compound 10 µM, first compound 0.316 µM
[40] = second compound 10 µM, first compound 1 µM
[41] = second compound 10 µM, first compound 3.16 µM
[42] = second compound 10 µM, first compound 10 µM
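Also: spheroids exposed to agents for 7 days before the viability read.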

C[C@@H](NC(=O)c1ncnc(N)c1Cl)c1ncc(C(=O)Nc2cc(C(F)(F)F)c(Cl)cn2)s1 + CC(Nc1ncnc2nc[nH]c12)c1cc2cccc(Cl)c2c(=O)n1-c1ccccc1
< 0.0316 µM: IC50 [6]
> 10 µM: IC50 [1] | IC50 [2] | IC50 [3] | IC50 [4] | IC50 [5]
inactive: viability, T/C [7] 88.8% | viability, T/C [8] 87.1% | viability, T/C [9] 81.4% | viability, T/C [10] 99.8% | viability, T/C [11] 78.1% | viability, T/C [12] 64.8% | viability, T/C [13] 90% | viability, T/C [14] 85.6% | viability, T/C [15] 91.3% | viability, T/C [16] 91.8% | viability, T/C [17] 81.2% | viability, T/C [18] 58.2% | viability, T/C [19] 85.5% | viability, T/C [20] 96.2% | viability, T/C [21] 90.3% | viability, T/C [22] 74% | viability, T/C [23] 78.4% | viability, T/C [24] 76.2% | viability, T/C [25] 80.3% | viability, T/C [26] 82.1% | viability, T/C [27] 90.4% | viability, T/C [28] 74.4% | viability, T/C [29] 75.8% | viability, T/C [30] 50.1% | viability, T/C [31] 58.3% | viability, T/C [32] 56.5% | viability, T/C [33] 60% | viability, T/C [34] 58.2% | viability, T/C [35] 65.2% | viability, T/C [36] 51.7% | viability, T/C [37] 36.9% | viability, T/C [38] 43.9% | viability, T/C [39] 45.8% | viability, T/C [40] 44.6% | viability, T/C [41] 55.7% | viability, T/C [42] 40.4%

Cn1cnc2c(F)c(Nc3ccc(Br)cc3Cl)c(C(=O)NOCCO)cc21
52.5 nM [middle of 4 runs]: IC50 (curve of compound)
inactive: viability, T/C (compound 0.00949 µM) 73.6% [middle of 4 runs] | viability, T/C (compound 0.03 µM) 54.3% [middle of 4 runs] | viability, T/C (compound 0.0949 µM) 43.7% [middle of 4 runs] | viability, T/C (compound 0.3 µM) 32.2% [middle of 4 runs] | viability, T/C (compound 0.949 µM) 34.6% [middle of 4 runs] | viability, T/C (compound 3 µM) 20.2% [middle of 4 runs]

CNC(=O)c1ccc(N2C(=S)N(c3ccc(C#N)c(C(F)(F)F)c3)C(=O)C2(C)C)cc1F + Cc1nc(NC(=O)N2CCCC2C(N)=O)sc1-c1ccnc(C(C)(C)C(F)(F)F)c1
< 0.0316 µM: IC50 [3] | IC50 [4] | IC50 [5] | IC50 [6]
> 10 µM: IC50 [1] | IC50 [2]
active: viability, T/C [37] 8.45% | viability, T/C [38] 7.75% | viability, T/C [39] 8.14% | viability, T/C [40] 7.47% | viability, T/C [41] 8.35% | viability, T/C [42] 6.73%
inactive: viability, T/C [7] 94.3% | viability, T/C [8] 75.6% | viability, T/C [9] 86.2% | viability, T/C [10] 82.5% | viability, T/C [11] 87.8% | viability, T/C [12] 63.4% | viability, T/C [13] 74% | viability, T/C [14] 67.2% | viability, T/C [15] 81.8% | viability, T/C [16] 74.7% | viability, T/C [17] 63.6% | viability, T/C [18] 73.7% | viability, T/C [19] 48.6% | viability, T/C [20] 49.1% | viability, T/C [21] 46.7% | viability, T/C [22] 45.7% | viability, T/C [23] 53.6% | viability, T/C [24] 45.6% | viability, T/C [25] 31% | viability, T/C [26] 27.3% | viability, T/C [27] 33.1% | viability, T/C [28] 32.4% | viability, T/C [29] 25.9% | viability, T/C [30] 31.7% | viability, T/C [31] 15.9% | viability, T/C [32] 15.3% | viability, T/C [33] 17.6% | viability, T/C [34] 16.6% | viability, T/C [35] 15.7% | viability, T/C [36] 14.3%

CC1(C)CCC(CN2CCN(c3ccc(C(=O)NS(=O)(=O)c4ccc(NCC5CCOCC5)c([N+](=O)[O-])c4)c(Oc4cnc5[nH]ccc5c4)c3)CC2)=C(c2ccc(Cl)cc2)C1 + Cc1nc(NC(=O)N2CCCC2C(N)=O)sc1-c1ccnc(C(C)(C)C(F)(F)F)c1
inactive: viability, T/C [7] 85.3% | viability, T/C [8] 84% | viability, T/C [9] 87.7% | viability, T/C [10] 81.2% | viability, T/C [11] 81.8% | viability, T/C [13] 66.6% | viability, T/C [14] 66.1% | viability, T/C [15] 79.5% | viability, T/C [16] 67.3% | viability, T/C [17] 71.3% | viability, T/C [19] 47.4% | viability, T/C [20] 45% | viability, T/C [21] 51.2% | viability, T/C [22] 52.6% | viability, T/C [23] 44.5% | viability, T/C [25] 41.3% | viability, T/C [26] 28.9% | viability, T/C [27] 29.4% | viability, T/C [28] 33.2% | viability, T/C [29] 30.7% | viability, T/C [30] 3.44% | viability, T/C [31] 14.8% | viability, T/C [32] 14.4% | viability, T/C [33] 17.1% | viability, T/C [34] 14.3% | viability, T/C [35] 14.7% | viability, T/C [37] 7.93%
active: viability, T/C [12] 3.63% | viability, T/C [18] 3.02% | viability, T/C [24] 4.5% | viability, T/C [36] 2.57% | viability, T/C [38] 12.9% | viability, T/C [39] 7.45% | viability, T/C [40] 8.13% | viability, T/C [41] 7.77% | viability, T/C [42] 1.74%
< 0.0316 µM: IC50 [3] | IC50 [4] | IC50 [5] | IC50 [6]
5.05 µM: IC50 [1]
4.46 µM: IC50 [2]

C=CC(=O)N1CCN(c2nc(=O)n(-c3c(C)ccnc3C(C)C)c3nc(-c4c(O)cccc4F)c(F)cc23)C(C)C1 (stereo not given) + CC(Nc1ccc2c(c1)OCCn1cc(N3C(=O)OCC3C(F)F)nc1-2)C(N)=O
0.0316 µM: IC50 (curve of first compound, second compound 0.01 µM)
< 0.0316 µM: IC50 [1] | IC50 [2] | IC50 [3] | IC50 [4]
active: viability, T/C [26] 9.98% | viability, T/C [27] 7.7% | viability, T/C [28] 7.88% | viability, T/C [29] 12.1% | viability, T/C [30] 9.67%
> 10 µM: IC50 (curve of first compound, second compound 0.00316 µM)
inactive: viability, T/C (second compound 0.00316 µM, first compound 0.0316 µM) 59% | viability, T/C (second compound 0.00316 µM, first compound 0.1 µM) 49.2% | viability, T/C (second compound 0.00316 µM, first compound 0.316 µM) 52.5% | viability, T/C (second compound 0.00316 µM, first compound 1 µM) 70.5% | viability, T/C (second compound 0.00316 µM, first compound 3.16 µM) 70.8% | viability, T/C (second compound 0.00316 µM, first compound 10 µM) 56.5% | viability, T/C (second compound 0.01 µM, first compound 0.0316 µM) 57.8% | viability, T/C (second compound 0.01 µM, first compound 0.1 µM) 51.8% | viability, T/C (second compound 0.01 µM, first compound 0.316 µM) 47.7% | viability, T/C (second compound 0.01 µM, first compound 1 µM) 44.5% | viability, T/C (second compound 0.01 µM, first compound 3.16 µM) 56.5% | viability, T/C (second compound 0.01 µM, first compound 10 µM) 61.1% | viability, T/C [7] 45% | viability, T/C [8] 38.2% | viability, T/C [9] 30.8% | viability, T/C [10] 40.9% | viability, T/C [11] 42.6% | viability, T/C [12] 49.7% | viability, T/C [13] 25.3% | viability, T/C [14] 21.6% | viability, T/C [15] 19.3% | viability, T/C [16] 25.7% | viability, T/C [17] 30.4% | viability, T/C [18] 25.3% | viability, T/C [19] 13.5% | viability, T/C [20] 13.4% | viability, T/C [21] 11% | viability, T/C [22] 14.6% | viability, T/C [23] 15.5% | viability, T/C [24] 17.3% | viability, T/C [25] 10.3%
